The text below walks through data of patent US20040023986A1, “Substituted felbamate derived compounds” (priority 2003, published 2004).

The conditions of series [1]: human, after felbamate; cited from earlier work.
In series [2] the test system is intractable tic douloureux. Particulars: doses of 1200-2400 mg/day (Chesire 1995); cited from earlier work.
The conditions of series [3]: felbamate therapy; cited from earlier work.
The conditions of series [4]: cited from earlier work.
Series [5] deals with rat model of painful peripheral neuropathy. As to conditions: rat (Imamura 1995); cited from earlier work.
The nature of series [6]: LC/MS quantification of felbamate and its metabolites excreted in patient urine. The series is classed as in vivo, human. As to conditions: 34 urine samples from 31 patients on felbamate therapy. Here is the method:
Preparation of Patient Urine Samples. Urine samples were obtained from patient volunteers undergoing felbamate therapy for control of epileptic seizures and under the care of physicians at either the University of Virginia (Charlottesville, Va.) or the EpiCare Center (Memphis, Tenn.). Urine samples were diluted four fold with distilled water (this was done prior to overnight shipment for samples requiring shipping) and placed in an orbital shaking water bath for˜20 min at 37° C. to insure that all of the analytes were in solution. 500 μL of this diluted sample were removed and added to 100 μL of a mixture of the four deuterated internal standards. […] After mixing, 200 μL were removed and added to 20 μL of 20% H0Ac. […] This fraction was then analyzed by LC/MS without further manipulation.
LC/MS Analysis of Urine Samples for Metabolite Quantification. LC/MS analysis was performed using a Waters 2690 HPLC equipped with an autosampler and a Waters 486 tunable absorbance detector. […] The post-column flow was directed through a Waters 486 tunable absorbance detector (10 μL flow cell, λ=214 nm) which was used for qualitative assessment of the sample and not for quantitation. […]
Quantification was achieved by integration of the peaks from the mass chromatogram for each analyte using software (Navigator 1.1) provided with the LCQ. […]

The nature of series [7]: Chemical stability of felbamate metabolites. The class given is physicochemical. As to conditions: at relevant pH.

`NC(=O)CC(C(=O)O)c1ccccc1` (centres unmarked) [acid carbamate 4, 3-carbamoyl-2-phenylpropionic acid]: in series [1], the “fraction of a felbamate dose represented by the metabolite” value is ~12 % of a dose.

Turning to `NC(=O)OCC(COC(N)=O)c1ccccc1` [felbamate, 2-phenyl-1,3-propanediol dicarbamate], in series [2], the treatment effect result is reported as “effectively treated”. Further, the “mean onset time of severe toxicities” value in series [3] is reported as no more than 6 months. The “course of weight loss” value in series [4] (add-on therapy in partial epilepsy in children (Carmant 1994)) is “weight loss was transient and returned to normal after twenty weeks”. Moreover, the weight loss in series [4] (patients on felbamate monotherapy (Faught 1993)) is 4-5%. The measures of pain result in series [5] is listed as “significant reductions in all measures of pain”. In series [6], the “presence of atropaldehyde derived mercapturic acids 7 and 8 in urine” value is recorded as “All of the urine samples analyzed were found to contain both of the mercapturic acids”.

As for `O=C1NC(=O)C(c2ccccc2)CO1` (centres unmarked) [oxazinane-dione 9], the stability result in series [7] is reported as “unstable”.
